From the NIST ThermoML archive (doi:10.1021/acs.jced.8b00157)
Values joined by “and” are separate entries in the source; they are usually repeats but may differ in a detail not shown here. Identical values can stand only once.

Assay: an = ratio of the nth substance listed
Settings: 100 kPa, Liquid, Buoyancy - hydrostatic balance, a2 = 1.3

[F][Al]([F])[F] [aluminum fluoride] + [F-].[K+]
Settings | mass density
1013.8 K | 1821 kg/m3
1014 K | 1822 kg/m3
1014.2 K | 1821 kg/m3
1014.4 K | 1822 kg/m3
1014.5 K | 1822 kg/m3
1014.9 K | 1821 kg/m3
1015.1 K | 1821 kg/m3
1015.2 K | 1820 kg/m3 and 1821 kg/m3
1015.3 K | 1822 kg/m3
1015.5 K | 1821 kg/m3
1015.7 K | 1820 kg/m3
1016.1 K | 1819 kg/m3
1016.3 K | 1820 kg/m3
1016.5 K | 1819 kg/m3
1016.7 K | 1819 kg/m3
1016.8 K | 1819 kg/m3
1017 K | 1818 kg/m3
1017.4 K | 1818 kg/m3
1017.8 K | 1819 kg/m3
1018 K | 1818 kg/m3
1018.1 K | 1818 kg/m3
1018.2 K | 1819 kg/m3
1018.4 K | 1819 kg/m3 and 1816 kg/m3
1018.5 K | 1818 kg/m3
1018.6 K | 1817 kg/m3
1018.9 K | 1816 kg/m3
1019.5 K | 1818 kg/m3
1019.7 K | 1816 kg/m3
1019.8 K | 1817 kg/m3
1019.9 K | 1817 kg/m3 and 1815 kg/m3 and 1816 kg/m3
1020.3 K | 1816 kg/m3
1020.5 K | 1815 kg/m3
1020.8 K | 1815 kg/m3
1021 K | 1816 kg/m3
1021.1 K | 1816 kg/m3
1021.2 K | 1814 kg/m3
1021.4 K | 1815 kg/m3
1021.7 K | 1816 kg/m3 and 1815 kg/m3
1022 K | 1813 kg/m3
1022.1 K | 1815 kg/m3
1022.6 K | 1815 kg/m3
1022.8 K | 1813 kg/m3
1022.9 K | 1812 kg/m3
1023 K | 1814 kg/m3
1023.1 K | 1814 kg/m3
1023.2 K | 1814 kg/m3
1023.4 K | 1813 kg/m3
1023.7 K | 1812 kg/m3
1024 K | 1813 kg/m3
1024.1 K | 1812 kg/m3
1024.4 K | 1812 kg/m3
1024.9 K | 1813 kg/m3 and 1811 kg/m3
1025 K | 1811 kg/m3
1025.2 K | 1813 kg/m3
1025.6 K | 1810 kg/m3
1025.7 K | 1810 kg/m3
1025.8 K | 1812 kg/m3
1026 K | 1812 kg/m3
1026.2 K | 1812 kg/m3
1026.4 K | 1810 kg/m3
1026.5 K | 1809 kg/m3
1026.6 K | 1810 kg/m3
1026.7 K | 1811 kg/m3
1026.9 K | 1809 kg/m3
1027.1 K | 1810 kg/m3
1027.2 K | 1808 kg/m3
1027.3 K | 1811 kg/m3
1027.4 K | 1808 kg/m3
1027.5 K | 1809 kg/m3
1027.9 K | 1809 kg/m3
1028 K | 1809 kg/m3
1028.1 K | 1809 kg/m3
1028.3 K | 1807 kg/m3
1028.6 K | 1807 kg/m3
1028.7 K | 1807 kg/m3
1028.9 K | 1808 kg/m3
1029.1 K | 1806 kg/m3
1029.3 K | 1807 kg/m3 and 1808 kg/m3
1029.4 K | 1807 kg/m3
1029.8 K | 1806 kg/m3
1030.3 K | 1806 kg/m3
1030.6 K | 1807 kg/m3 and 1806 kg/m3
1030.9 K | 1805 kg/m3
1031.1 K | 1806 kg/m3 and 1804 kg/m3
1031.5 K | 1804 kg/m3
1031.7 K | 1805 kg/m3 and 1806 kg/m3
1031.8 K | 1805 kg/m3
1032.3 K | 1803 kg/m3
1032.5 K | 1805 kg/m3
1032.6 K | 1803 kg/m3
1032.7 K | 1804 kg/m3
1032.9 K | 1804 kg/m3
1033.1 K | 1803 kg/m3
1033.3 K | 1803 kg/m3 and 1804 kg/m3
1033.5 K | 1803 kg/m3
1033.7 K | 1801 kg/m3 and 1802 kg/m3
1033.8 K | 1803 kg/m3
1033.9 K | 1804 kg/m3
1034.1 K | 1802 kg/m3
1034.5 K | 1801 kg/m3
1034.8 K | 1802 kg/m3 and 1801 kg/m3
1034.9 K | 1802 kg/m3
1035.3 K | 1801 kg/m3 and 1800 kg/m3
1035.6 K | 1800 kg/m3
1035.7 K | 1799 kg/m3
1036.4 K | 1799 kg/m3
1036.6 K | 1801 kg/m3 and 1798 kg/m3
1037 K | 1799 kg/m3
1037.1 K | 1801 kg/m3
1037.5 K | 1797 kg/m3
1037.7 K | 1798 kg/m3
1038.1 K | 1800 kg/m3 and 1797 kg/m3
1038.2 K | 1799 kg/m3
1038.4 K | 1796 kg/m3
1038.5 K | 1799 kg/m3
1038.6 K | 1799 kg/m3
1038.9 K | 1799 kg/m3
1039 K | 1796 kg/m3
